What was measured:
[1] = molecular target: T1, adenosine A1 receptor (Rattus norvegicus, UniProt P25099); test: Adenosine receptor-mediated cardioprotection in rat hearts with ischemia-reperfusion, assessed by 99mTc-glucarate imaging; type: in vivo
T1 construct: from tissue; host or cells: living rat, heart (myocardium) in vivo
T1 sequence (P25099 1-326): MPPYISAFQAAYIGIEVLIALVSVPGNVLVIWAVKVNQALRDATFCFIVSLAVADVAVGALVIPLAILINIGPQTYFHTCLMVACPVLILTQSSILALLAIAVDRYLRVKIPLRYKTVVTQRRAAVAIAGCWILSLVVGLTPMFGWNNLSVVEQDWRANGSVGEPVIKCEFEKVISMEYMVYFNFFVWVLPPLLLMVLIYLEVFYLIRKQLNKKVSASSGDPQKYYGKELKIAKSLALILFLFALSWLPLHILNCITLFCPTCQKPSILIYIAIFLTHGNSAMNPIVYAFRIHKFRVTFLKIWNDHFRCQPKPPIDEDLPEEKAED
Description: Experimental groups in this example included: Group-I (IR30, n=11): Animals subjected to a treatment of 30-min regional myocardial ischemia and 30-min reperfusion by ligating and releasing the left coronary artery (LCA). Group-II: (IPC Group, n=6): Rats were preconditioned with a sequence of 6 cycles of 4-min LCA occlusion and 4-min re-flow; 10 min later, the rats underwent a 30-min LCA occlusion followed by 30-min re-flow. Group-III (CCPA, n=6): rat chests were opened for the equivalent time for IPC in Group-II. Ten minutes prior to 30-min LCA occlusion and 30-min reperfusion, CCPA (40 μg/kg) was intravenously injected with 5 cycles of 4-min infusion and 4-min no infusion. Group-IV (SPT, n=5): animals subjected to IPC as the protocol in Group-II, SPT (10 mg/kg) was intravenously infused 2-min before and during subsequent ischemia-reperfusion.
Treatments in this example consisted of control (IR30, n=8): no preconditioning; equivalent open-chest time; IPC (n=6): 4-min LCA occlusion, 4-min reflow, 5 cycles; CCPA (n=6): 4-min IV infusion, 4-min no infusion, 5 cycles; SPT (n=4): IPC first, SPT IV infusion 2 min before and during LCA occlusion and re-flow.

[2] = tested on: plasmocytoma (localized myeloma); test: Scintigraphy of a patient with plasmocytoma of T8; type: in vivo, human; conditions: for scan finding at diagnosis: patient with lytic lesion of T8, posterior view
Description: A patient complaining of invalidation pain in the spine (mid-thorax) for about two months. Peak of monoclonal IgG-k in serum. Bence-Jones protein in urine. Spine CT. lytic lesion of T8, with soft tissue infiltration. […] Uptake was obvious in the early images, 15 and 30 min p.i., late acquisition, 6 hr p.i., made the tracer uptake much more obvious.

[3] = tested on: MCF7/S tumor xenograft; test: FASTSPECT dynamic imaging and tumor washout kinetics, drug-sensitive xenograft; type: in vivo, SCID mice
Description: (§1) Tumor cell lines used. MCF7/S: Cells are parental, drug (doxorubicin) sensitive, breast carcinoma cells. MCF7/D40: Cells were generated in vitro by successive culturing parental MCF7 cells in slowly increasing concentrations of doxorubicin with a total selection time of 31 months. Twenty-eight SCID mice were studied. MCF7/S or MCF7/D40 tumors were grown for 10-14 days after subcutaneous injection of 1×10^6 cells into the right thigh. Groups of mice with the xenografted tumors included: (MCF7/S group: MIBI: n=9; GLA: n=8) and (MCF7/D40 group: MIBI: n=6; GLA: n=5).
(§2) The dynamic imaging system SPECT consisted of 24 small modular gamma cameras. Each modular camera consists of a 10 cm×10 cm NaI(Tl) scintillation crystal, 4 square (5 cm×5 cm) Hamamatsu photomultiplier tubes. The system included a cylindrical aperture with twenty four 1-mm diameter pinholes drilled in the aperture. A point source in the center of the field of view is projected simultaneously to the center of each camera. Total magnification is 3.5 in a 3.0 cm×3.2 cm×3.2 cm field of view. The spatial resolution of the system is about 1.0 mm, with a sensitivity of 13.3 cps/μCi.
(§3) ^99mTc-GLA or ^99mTc-MIBI (5-8 mCi, 185-296 MBq) was injected via a jugular vein catheter. Dynamic images were acquired for 2 hours. Twenty-four projections were obtained, one from each camera. Each scintillation event within the camera's NaI crystal was registered as the digitized outputs from the camera's four photomultiplier tubes. The four photomultiplier outputs were compared to a 20-bit look-up table derived from a calibration procedure that involved moving a collimated source across the camera face.
(§4) Tumor image reconstruction was performed using 100 iterations of the maximum-likelihood expectation-maximization (ML-EM) algorithm. Using SlicerDicer software, three-dimensional images were computed to provide images in a 33×49×49 voxels format, and generate tomographic transaxial, coronal and sagittal slices with one-pixel thickness (1.0 mm). Regions of interest (ROI) over the tumors were created and applied to the dynamic images for determining time-activity curves. The percent washout rate relative to the peak uptake of the tumors were calculated.

[4] = tested on: MCF7/D40 tumor xenograft; test: FASTSPECT dynamic imaging and tumor washout kinetics, drug-resistant (Pgp positive) xenograft; type: in vivo, SCID mice; conditions: for time window after injection in which tumor could be localized/visualized: then activity dropped to background
Description: as §1, §2, §3, §4

[5] = tested on: MCF7/S tumors; test: Biodistribution in mice bearing MCF7/S tumors; type: in vivo, SCID mice
Description: as §1, §3
(§5) Tumors and organs were harvested and counted in a dose calibrator. The percent injected dose per gram (% ID/g) was calculated. Membrane preparations made from MCF7/S and MCF7/D40 tumors were immunoblotted with the mouse monoclonal antibody C219 against Pgp followed by a secondary antibody, which was detected by chemiluminescence. […] No immunodetectable MDR1 Pgp was presented in MCF7/S cells.

[6] = tested on: MCF7/D40 tumors; test: Biodistribution in mice bearing MCF7/D40 tumors; type: in vivo, SCID mice
Description: as §1, §3, §5

[7] = tested on: breast cancer; conditions: cited from earlier work
[8] = tested on: MCF7/D40 cells; test: Drug resistance of MCF7/D40 cells relative to MCF7/S; type: cell-based, human
[9] = Table 2, MCF7/S mice, 2 hours after injection
[10] = Table 4 (Example 3), MCF7/S mice
[11] = Table 2, MCF7/D40 mice, 2 hours after injection
[12] = Table 4 (Example 3), MCF7/D40 mice

## OC[C@H]1O[C@@H](n2cnc3c(NC4CCCC4)nc(Cl)nc32)[C@H](O)[C@@H]1O [CCPA, 2-chloro-N6-cyclopentyladenosine]
[1]; 40 μg/kg i.v. instead of IPC, before 30-min LCA occlusion and 30-min reperfusion
  effect on cardioprotection of ischemic preconditioning (IPC): simulated

## Cn1c(=O)c2[nH]c(-c3ccc(S(=O)(=O)O)cc3)nc2n(C)c1=O [SPT, 8-(p-sulfophenyl)-theophylline]
[1]; 10 mg/kg i.v. infusion after IPC, before and during ischemia-reperfusion
  effect on cardioprotection of ischemic preconditioning (IPC): blocked

## O.O.O=P([O-])([O-])CP(=O)([O-])[O-].[99Tc+4] [^99mTc-MDP]
[2]
  scan finding at diagnosis: focally increased uptake corresponding to T8
[2]; posterior view
  scan finding after about 1 year of stabilization and external radiotherapy: inhomogeneous tracer distribution, without clear focally increased uptake

## [C-]#[N+]CC(C)(C)OC.[C-]#[N+]CC(C)(C)OC.[C-]#[N+]CC(C)(C)OC.[C-]#[N+]CC(C)(C)OC.[C-]#[N+]CC(C)(C)OC.[C-]#[N+]CC(C)(C)OC.[Tc] [^99mTc-sestamibi, reference compound]
[3]
  two-hour fractional washout (% peak activity): 50.2±5.3%
[3]; FASTSPECT, 120 min acquisition
  time after injection until which tumor stayed visualized/detectable: 120 min
[4]
  two-hour fractional washout (% peak activity): 71.7±1.7%
  time window after injection in which tumor could be localized/visualized: 2 to 4 min
[4]; listed as 99mTc-MIBI
  time window after injection in which tumor could be localized/visualized: 2 to 3 min
[5]; [9]
  Biodistribution, blood: 0.06 ± 0.01 % ID/gm
  Biodistribution, heart: 10.61 ± 0.89 % ID/gm
  Biodistribution, kidneys: 21.32 ± 2.03 % ID/gm
  Biodistribution, liver: 7.02 ± 1.01 % ID/gm
  Biodistribution, lung: 0.95 ± 0.16 % ID/gm
  Biodistribution, muscle: 1.37 ± 0.12 % ID/gm
  Biodistribution, tumor: 0.64 ± 0.07 % ID/gm
[5]; [10]
  Biodistribution, blood: 0.06 ± 0.01 % ID/g
  Biodistribution, heart: 10.61 ± 0.89 % ID/g
  Biodistribution, kidneys: 21.32 ± 2.03 % ID/g
  Biodistribution, liver: 7.02 ± 1.01 % ID/g
  Biodistribution, lung: 0.95 ± 0.16 % ID/g
  Biodistribution, muscle: 1.37 ± 0.12 % ID/g
  Biodistribution, tumor: 0.64 ± 0.07 % ID/g
  Tumor/Blood ratio: 13.97 ± 2.89
  Tumor/Muscle ratio: 0.48 ± 0.05
[6]; [11]
  Biodistribution, blood: 0.07 ± 0.01 % ID/gm
  Biodistribution, heart: 9.78 ± 1.65 % ID/gm
  Biodistribution, kidneys: 17.71 ± 3.13 % ID/gm
  Biodistribution, liver: 7.67 ± 1.52 % ID/gm
  Biodistribution, lung: 0.61 ± 0.12 % ID/gm
  Biodistribution, muscle: 1.09 ± 0.32 % ID/gm
  Biodistribution, tumor: 0.27 ± 0.05 % ID/gm
[6]; [12]
  Biodistribution, blood: 0.07 ± 0.01 % ID/g
  Biodistribution, heart: 9.84 ± 1.39 % ID/g
  Biodistribution, kidneys: 19.63 ± 3.48 % ID/g
  Biodistribution, liver: 8.29 ± 1.43 % ID/g
  Biodistribution, lung: 0.61 ± 0.10 % ID/g
  Biodistribution, muscle: 1.08 ± 0.27 % ID/g
  Biodistribution, tumor: 0.27 ± 0.05 % ID/g
  Tumor/Blood ratio: 3.93 ± 0.41
  Tumor/Muscle ratio: 0.31 ± 0.05
[2]
  scan finding at diagnosis: negative for bone marrow infiltration
[7]; in vivo
  negative predictive value: 83.4%
  overall institutional sensitivity for breast cancer detection: 75.4%
  overall institutional specificity for breast cancer detection: 82.7%
  positive predictive value: 74.5%
[7]; tumors under 1 cm
  sensitivity for tumors under 1 cm in size: 48.2%

## COc1cccc2c1C(=O)c1c(O)c3c(c(O)c1C2=O)C[C@@](O)(C(=O)CO)C[C@@H]3O[C@H]1C[C@H](N)[C@H](O)[C@H](C)O1 [doxorubicin]
[8]
  resistance of MCF7/D40 compared to MCF7/S: 40 fold

From patent US20050152835A1, “Technetium-99M glucarate methods of use for monitoring tissues” (priority 2003, published 2005)
